{"source": "patent US20150374649A1", "about": "“Treatment of Severe Hypertriglyceridemia” (CymaBay Therapeutics, Inc, priority 2014, published 2015)", "key": {"[1]": {"tested_on": "hypertriglyceridemia patients", "conditions": "cited from earlier work"}, "[2]": {"tested_on": "adult subjects with severe hypertriglyceridemia", "experiment": "12-week open label dose-escalation study in severe hypertriglyceridemia", "type": "in vivo, human", "experimental": "The study is a 12-week interventional, open label (single blind), dose-escalation study using adult subjects (for example 30, preferably with at least one-fourth the number having Type I hyperlipoproteinemia and at least one-fourth the number having Type V hyperlipoproteinemia) with severe hypertriglyceridemia (fasting TG levels of at least 1000 mg/dL), on stable therapy (fibrates, niacin, O3FA) or refractory to such therapy. Exclusion criteria include stage 3 or 4 heart failure, uncontrolled diabetes mellitus in the month before screening, use of corticosteroids in the month before screening, estrogen treatments (contraceptive or hormone replacement) unless on a stable dose in the two months before screening, a history of pancreatic disease during the six months before screening, and current apheresis treatments. Subjects are assessed for fasting TGs and other lipids at baseline."}, "[3]": {"target": "T1, PPARα (Homo sapiens, UniProt Q07869)", "T1 sequence (Q07869 1-468)": "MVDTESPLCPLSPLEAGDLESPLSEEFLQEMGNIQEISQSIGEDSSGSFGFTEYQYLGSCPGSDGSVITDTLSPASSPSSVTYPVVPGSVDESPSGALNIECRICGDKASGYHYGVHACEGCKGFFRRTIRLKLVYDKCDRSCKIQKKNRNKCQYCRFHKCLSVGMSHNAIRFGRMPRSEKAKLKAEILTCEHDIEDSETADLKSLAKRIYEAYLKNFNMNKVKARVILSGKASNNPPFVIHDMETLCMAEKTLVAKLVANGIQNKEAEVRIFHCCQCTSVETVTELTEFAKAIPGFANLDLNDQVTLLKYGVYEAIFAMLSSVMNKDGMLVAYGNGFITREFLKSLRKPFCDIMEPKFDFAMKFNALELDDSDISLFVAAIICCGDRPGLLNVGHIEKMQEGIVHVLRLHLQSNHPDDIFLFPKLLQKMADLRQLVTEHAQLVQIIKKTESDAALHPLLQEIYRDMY", "experiment": "Specificity for PPARδ compared with PPARα", "type": "biochemical", "conditions": "PPARδ versus PPARα"}, "[4]": {"tested_on": "dyslipidemic overweight patients (mixed dyslipidemia)", "conditions": "cited from earlier work"}}, "data": [{"smiles": "O=C(O)c1cccnc1", "note": "[niacin, pyridine-3-carboxylic acid]", "values": [{"measurement": "decrease of TG levels", "setting": "[1]; high-dose niacin (at least 1500 mg/day)", "result": "at least 40%"}, {"measurement": "raise of HDL-C levels", "setting": "[1]; human, in vivo", "result": "at least 40%"}]}, {"smiles": "CCO[C@H](COc1ccc(C(F)(F)F)cc1)CSc1ccc(OCC(=O)O)c(C)c1", "note": "[MBX-8025, (R)-2-(4-((2-ethoxy-3-(4-(trifluoromethyl)phenoxy)propyl)thio)-2-methylphenoxy)acetic acid]", "values": [{"measurement": "fasting TGs versus baseline", "setting": "[2]; 50, 100, 200 mg/day orally, four weeks each, reduction increasing with dose", "result": "reduction in fasting TGs from baseline"}, {"measurement": "percentage of subjects at risk of acute pancreatitis and associated adverse events", "setting": "[2]; subjects with SHTG", "result": "significantly reduce"}, {"measurement": "specificity compared with PPARα", "setting": "[3]", "result": "> 600", "unit": "fold"}, {"measurement": "reduction of TGs over the total population treated", "setting": "[4]; 50 mg/day and 100 mg/day", "result": 32, "unit": "%"}, {"measurement": "reduction of TGs", "setting": "[4]; compared to placebo, 50 or 100 mg once daily alone and in combination with ATV 20 mg, 8 weeks, P<0.05", "result": "26-30%"}, {"measurement": "insulin sensitivity", "setting": "[4]; homeostatic model assessment-insulin resistance, fasting plasma glucose, insulin lowered", "result": "increases insulin sensitivity"}, {"measurement": "GGT and ALP", "setting": "[4]; in vivo", "result": "lowers GGT and ALP"}, {"measurement": "effect on small dense LDL particles", "setting": "[4]; in vivo", "result": "selectively depletes small dense LDL particles"}, {"measurement": "liver enzyme levels", "setting": "[4]; in vivo", "result": "reduced liver enzyme levels"}, {"measurement": "percentage reduction in TGs, tertile with lowest starting TG levels", "setting": "[4]; starting TG 125-155 mg/dL", "result": "near zero"}, {"measurement": "percentage reduction in TGs, tertile with highest starting TG levels", "setting": "[4]; starting TG 279-324 mg/dL", "result": "over 40%"}]}]}
